Molecular target: T1, KCNT1 (KNa1.1, Slack) (Homo sapiens, UniProt Q5JUK3)
T1 construct: expressed in transfected cells; host or cells: HEK-TREX (tetracycline-inducible cell line)
T1 sequence (Q5JUK3 1-1230): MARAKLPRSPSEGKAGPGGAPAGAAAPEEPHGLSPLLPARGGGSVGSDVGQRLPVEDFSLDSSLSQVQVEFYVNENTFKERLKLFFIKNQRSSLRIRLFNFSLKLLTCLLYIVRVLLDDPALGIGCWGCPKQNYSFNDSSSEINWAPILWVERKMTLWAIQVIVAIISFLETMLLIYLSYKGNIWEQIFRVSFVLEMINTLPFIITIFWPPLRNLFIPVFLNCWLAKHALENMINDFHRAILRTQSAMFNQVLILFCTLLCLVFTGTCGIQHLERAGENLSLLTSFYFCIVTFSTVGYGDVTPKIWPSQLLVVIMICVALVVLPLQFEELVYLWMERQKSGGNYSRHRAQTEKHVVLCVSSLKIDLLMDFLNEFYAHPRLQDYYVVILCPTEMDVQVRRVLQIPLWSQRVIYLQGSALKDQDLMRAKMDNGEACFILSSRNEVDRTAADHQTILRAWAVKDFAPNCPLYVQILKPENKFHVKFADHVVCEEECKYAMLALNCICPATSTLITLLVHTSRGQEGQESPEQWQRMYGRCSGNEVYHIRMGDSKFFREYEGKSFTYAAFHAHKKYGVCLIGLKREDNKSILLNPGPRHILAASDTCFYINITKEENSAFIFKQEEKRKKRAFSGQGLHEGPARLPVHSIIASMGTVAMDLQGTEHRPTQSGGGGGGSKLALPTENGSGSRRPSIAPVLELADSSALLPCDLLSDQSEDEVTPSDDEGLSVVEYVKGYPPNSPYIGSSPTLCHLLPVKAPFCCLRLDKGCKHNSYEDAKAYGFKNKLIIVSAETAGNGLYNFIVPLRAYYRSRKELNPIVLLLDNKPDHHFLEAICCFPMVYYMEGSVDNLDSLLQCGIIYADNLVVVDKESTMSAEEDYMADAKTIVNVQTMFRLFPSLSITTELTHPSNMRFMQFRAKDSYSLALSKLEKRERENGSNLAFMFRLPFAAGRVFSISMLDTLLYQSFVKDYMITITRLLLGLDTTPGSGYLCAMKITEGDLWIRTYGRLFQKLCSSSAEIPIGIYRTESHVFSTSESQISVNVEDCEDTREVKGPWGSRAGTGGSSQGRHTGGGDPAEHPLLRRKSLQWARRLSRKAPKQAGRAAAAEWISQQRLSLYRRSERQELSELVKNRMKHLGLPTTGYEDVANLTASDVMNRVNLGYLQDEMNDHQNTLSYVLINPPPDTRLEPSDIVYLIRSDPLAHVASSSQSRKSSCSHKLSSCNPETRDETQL
Test: KCNT1-WT-Basal Patch Clamp Assay
Type: cell-based
Conditions: tetracycline inducible cell line (HEK-TREX); SyncroPatch 384PE automated patch clamp, perforated patch mode, room temperature, step from -80 mV to 0 mV
Outline: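 Tetracycline-inducible HEK-TREX cells expressing human KCNT1, recorded by automated perforated patch clamp (10 μM escin) at room temperature, with 4 mM external K+ at pH 7.4. Mean current taken during a 100 ms step from −80 mV to 0 mV, averaged over 3 sweeps. IC50 from Hill fit of % inhibition; otherwise % inhibition at top concentration.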

| Structure (SMILES) | IC50 [nM] |
| --- | --- |
| C[C@H](NC(=O)C1CC(F)(F)C1)c1nc(-c2ccnc(C(F)(F)F)c2)no1 [Compound I-2, (S)-3,3-difluoro-N-(1-(3-(2-(trifluoromethyl)pyridin-4-yl)-1,2,4-oxadiazol-5-yl)ethyl)cyclobutane-1-carboxamide] | 1000 to 20000 |
| C[C@H](NC(=O)c1cc2ccc(C(F)(F)F)cc2s1)c1nc(-c2ccnc(C(F)(F)F)c2)no1 [Compound I-25, (S)-6-(trifluoromethyl)-N-(1-(3-(2-(trifluoromethyl)pyridin-4-yl)-1,2,4-oxadiazol-5-yl)ethyl)benzo[b]thiophene-2-carboxamide] | ≤ 1000 |
| Cc1oncc1C(=O)N[C@@H](C)c1nc(-c2ccnc(C(F)(F)F)c2)no1 [Compound I-21, (S)-5-methyl-N-(1-(3-(2-(trifluoromethyl)pyridin-4-yl)-1,2,4-oxadiazol-5-yl)ethyl)isoxazole-4-carboxamide] | 1000 to 20000 |
| C[C@H](NC(=O)[C@@H](C)c1ccccc1)c1nc(-c2ccnc(C3CC3)c2)no1 [Compound I-64, (2S)—N-[(1S)-1-[3-(2-cyclopropyl-4-pyridyl)-1,2,4-oxadiazol-5-yl]ethyl]-2-phenyl-propanamide] | ≤ 1000 |
| C[C@H](NC(=O)c1nc(C(F)(F)F)cs1)c1nc(-c2ccnc(C(F)(F)F)c2)no1 [Compound I-5, (S)-4-(trifluoromethyl)-N-(1-(3-(2-(trifluoromethyl)pyridin-4-yl)-1,2,4-oxadiazol-5-yl)ethyl)thiazole-2-carboxamide] | ≤ 1000 |
| C[C@H](NC(=O)Cc1ccccc1)c1nc(-c2ccnc(C(F)(F)F)c2)no1 [Compound I-13, (S)-2-phenyl-N-(1-(3-(2-(trifluoromethyl)pyridin-4-yl)-1,2,4-oxadiazol-5-yl)ethyl)acetamide] | 1000 to 20000 |
| CC(C)Oc1cc(-c2noc([C@H](C)NC(=O)c3ccccc3)n2)ccn1 [Compound I-43, (S)—N-(1-(3-(2-isopropoxypyridin-4-yl)-1,2,4-oxadiazol-5-yl)ethyl)benzamide] | ≤ 1000 |
| C[C@H](NC(=O)c1c[nH]c(C(F)(F)F)n1)c1nc(-c2ccnc(C(F)(F)F)c2)no1 [Compound I-4, (S)-2-(trifluoromethyl)-N-(1-(3-(2-(trifluoromethyl)pyridin-4-yl)-1,2,4-oxadiazol-5-yl)ethyl)-1H-imidazole-4-carboxamide] | ≥ 20000 |
| C[C@H](NC(=O)c1ccccc1)c1nc(-c2ccnc(C(F)(F)F)c2)no1 [Compound I-8, (S)—N-(1-(3-(2-(trifluoromethyl)pyridin-4-yl)-1,2,4-oxadiazol-5-yl)ethyl)benzamide] | ≤ 1000 |
| C[C@H](NC(=O)[C@H]1CCCC(=O)N1)c1nc(-c2ccnc(C(F)(F)F)c2)no1 [Compound I-34, (R)-6-oxo-N—((S)-1-(3-(2-(trifluoromethyl)pyridin-4-yl)-1,2,4-oxadiazol-5-yl)ethyl)piperidine-2-carboxamide] | ≥ 20000 |
| C[C@H](NC(=O)C1CCOCC1)c1nc(-c2ccnc(C(F)(F)F)c2)no1 [Compound I-12, (S)—N-(1-(3-(2-(trifluoromethyl)pyridin-4-yl)-1,2,4-oxadiazol-5-yl)ethyl)tetrahydro-2H-pyran-4-carboxamide] | ≥ 20000 |
| C[C@H](NC(=O)c1ccc(Cl)cc1)c1nc(-c2ccnc(C3CC3)c2)no1 [Compound I-62, (S)-4-chloro-N-(1-(3-(2-cyclopropylpyridin-4-yl)-1,2,4-oxadiazol-5-yl)ethyl)benzamide] | ≤ 1000 |

Further lines, results first:

| IC50 [nM] | Structure (SMILES) |
| --- | --- |
| ≤ 1000 | C[C@H](NC(=O)c1cccc(Cl)c1)c1nc(-c2ccnc(C3CCC3)c2)no1 [Compound I-100, (S)-3-chloro-N-(1-(3-(2-cyclobutylpyridin-4-yl)-1,2,4-oxadiazol-5-yl)ethyl) benzamide] |
| ≥ 20000 | C[C@H](NC(=O)C1CCCCN1C)c1nc(-c2ccnc(C(F)(F)F)c2)no1 (stereo partly drawn) [Compound I-66, 1-methyl-N—((S)-1-(3-(2-(trifluoromethyl)pyridin-4-yl)-1,2,4-oxadiazol-5-yl)ethyl)piperidine-2-carboxamide] |
| ≤ 1000 | CC(C)Oc1cc(-c2noc([C@H](C)NC(=O)N3CCCCC3)n2)ccn1 [II-2] |
| ≤ 1000 | C[C@H](NC(=O)c1cccc(C#N)c1)c1nc(-c2ccnc(C3CC3)c2)no1 [Compound I-88, (S)-3-cyano-N-(1-(3-(2-cyclopropylpyridin-4-yl)-1,2,4-oxadiazol-5-yl)ethyl)benzamide] |
| ≤ 1000 | C[C@H](NC(=O)c1ccnc(C2CC2)c1)c1nc(-c2ccnc(C3CC3)c2)no1 [Compound I-99, (S)-2-cyclopropyl-N-(1-(3-(2-cyclopropylpyridin-4-yl)-1,2,4-oxadiazol-5-yl)ethyl)isonicotinamide] |
| ≤ 1000 | Cc1cc(C(=O)N[C@@H](C)c2nc(-c3ccnc(C4CC4)c3)no2)ccn1 [Compound I-101, (S)—N-(1-(3-(2-cyclopropylpyridin-4-yl)-1,2,4-oxadiazol-5-yl)ethyl)-2-methyl isonicotinamide] |
| ≤ 1000 | C[C@H](NC(=O)c1ccc(S(C)(=O)=O)s1)c1nc(-c2ccnc(C3CC3)c2)no1 [Compound I-70, (S)—N-(1-(3-(2-cyclopropylpyridin-4-yl)-1,2,4-oxadiazol-5-yl)ethyl)-5-(methylsulfonyl)thiophene-2-carboxamide] |
| 1000 to 20000 | C[C@H](NC(=O)CC(F)(F)F)c1nc(-c2ccnc(C(F)(F)F)c2)no1 [III-2, (S)-3,3,3-trifluoro-N-(1-(3-(2-(trifluoromethyl)pyridin-4-yl)-1,2,4-oxadiazol-5-yl)ethyl)propenamide] |
| ≤ 1000 | CC(C)Oc1cc(-c2noc([C@H](C)NC(=O)NC(C)(C)C)n2)ccn1 [II-1] |
| ≤ 1000 | C[C@H](NC(=O)C1CC2(CCC2)C1)c1nc(-c2ccnc(C(F)(F)F)c2)no1 [Compound I-76, N-[(1S)-1-[3-[2-(trifluoromethyl)-4-pyridyl]-1,2,4-oxadiazol-5-yl]ethyl]spiro[3.3]heptane-2-carboxamide] |
| ≥ 20000 | C[C@H](NC(=O)C1CCC(O)CC1)c1nc(-c2ccnc(C(F)(F)F)c2)no1 (single isomer, unassigned) [Compound I-78] |
| ≤ 1000 | COc1ccccc1C(=O)N[C@@H](C)c1nc(-c2ccnc(C3CC3)c2)no1 [Compound I-75, N-[(1S)-1-[3-(2-cyclopropyl-4-pyridyl)-1,2,4-oxadiazol-5-yl]ethyl]-2-methoxy-benzamide] |
| ≤ 1000 | C[C@H](NC(=O)N1CCOc2ccccc21)c1nc(-c2ccnc(C3CC3)c2)no1 [II-6] |

From patent publication US12583849B2, “KCNT1 inhibitors and methods of use” (Praxis Precision Medicines, Inc., priority 2020, dated 2026)
